≈ marks a conversion by molar mass, not a printed value.
Legend:
[1] = based on Equations (6) and (7); cited from earlier work
[2] = In vitro dissolution, USP II paddle method; assay type: physicochemical; conditions: at 90 min, pH 6.8 PBS
Protocol: The optimum ratios of all solid dispersion carriers were selected by drug release experiments in vitro. In vitro dissolution studies on pure IMC and SDs with different carriers were carried out using the United States Pharmacopeia Apparatus II (USP II) paddle method (100 rpm, 37 °C, and 250 mL pH 6.8 phosphate buffer solutions) with a ZRS-8G dissolution tester (Shanghai, China). Ten milligrams of sample powder was placed in the dissolution medium, and 5 mL of pH 6.8 phosphate buffer solution (PBS, artificial intestinal fluid) was withdrawn at pre-designed time intervals (0, 5, 10, 15, 20, 30, 40, 50, 60 and 90 min) prior to filtration. The concentration of samples was analyzed using an UV spectrophotometer (756 PC UV-2200, Shanghai, China) at 320 nm. All measurements were repeated three times.

[3] = In vivo pharmacokinetic study after oral administration; conditions: male, Sprague-Dawley, rat, plasma, rats, 40 mg/kg
Protocol: Male Sprague–Dawley rats (body weight 200 ± 20 g) were randomly divided into three groups (n = 3). Sprague–Dawley rats (200 ± 20 g) were obtained from Animal Experiment Center of Shanghai Institute of Material Medica, Shanghai, China. All animal experiments were performed by strictly following Institutional Animal Care and Use Committee (IACUC) guidelines (71044, 10 August 2019). Prior to the experiments, the rats were fasted overnight with free access to water. Aqueous suspensions of IMC, SDs with MSNs (F3), SDs with MSNs and Kollicoat IR (F6), and SDs with MSNs and HPMC (F9) at 40 mg/kg were orally administered, respectively, and blood samples (0.5 mL) were collected at different time points (0, 0.5, 1, 2, 4, 6, 8, 12, and 24 h) in microcentrifuge tubes containing heparin by retro-orbital venipuncture technique. The blood samples were immediately centrifuged at 4000 rpm for 10 min, and the supernatant was collected for further processing.
Plasma samples were processed as follows: 200 µL plasma samples were mixed with 20 µL of an internal standard solution (0.5 mg/mL naproxen), 90 µL 10% KH2PO4, and 1 mL dichloromethane, and then the mixture was vortexed for 3 min. Then, the mixture solutions were centrifuged at 10,000 rpm for 4 min, the organic layer was remained, and then the organic layer was evaporated in a gentle stream of nitrogen at room temperature. The residue was suspended in 100 µL of the mobile phase (acetonitrile:0.01 M H3PO4 = 55:45). After vortex mixing and centrifugation, samples were analyzed using HPLC.

[4] = Solubility studies (crystalline and amorphous solubility, UV analysis); assay type: physicochemical; conditions: phosphate buffered saline (PBS), pH 6.8 PBS, 25 °C
Protocol: The “crystalline solubility” was measured by the following method. An excess amount of crystal IMC powder was added to 10 mL of pH 6.8 PBS. These mixtures were kept at 25 °C and stirred at 300 rpm for 48 h. Ultracentrifugation was performed at 12,000 rpm and 25 °C for 30 min to separate excess solids using an Optima L-100XP ultracentrifuge (Beckman Coulter Inc., Brea, CA, USA). Then 5 mL of the supernatant was taken for ultraviolet (UV) spectroscopy analysis. All samples were prepared in triplicate.
The solubility of the amorphous IMC in the presence of excipients was also determined by calculating the solution concentration evolved from SDs at 25 °C after 48 h. Briefly, IMC–SDs were prepared by solvent evaporation directly from scintillation vials using a rotary evaporator. Then, 10 mL of pH 6.8 PBS was added. Solution concentration measurements were conducted following the ultraviolet (UV) spectroscopy analysis. The concentration of IMC was calculated with a standard curve built before.

Folds (increase of cumulative dissolution rate compared to pure IMC) [2]: 1.00 ± 0.28 folds
Cumulative Drug Dissolution Rate (%) ([2]; 37 °C, 100 rpm, mean ± SD, n = 3): 27.43 ± 0.96%
Tmax [3]: 4 h
AUC(0-t) ([3]; mean ± SD, n = 3): 1240 ± 189 µg·h/mL
Cmax ([3]; mean ± SD, n = 3): 125 ± 3.8 µg/mL
solubility at 48 h [4]: 23 µg/mL (≈ 64.3 µM)
SMILES: COc1ccc2c(c1)c(CC(=O)O)c(C)n2C(=O)c1ccc(Cl)cc1 [IMC, Indomethacin]
Hansen solubility parameter δ [1]: 24.8 MPa^1/2
